The data set deals with CD20 positive Raji cells. The data set is described as follows: Selective transduction and Gancyclovir killing of CD20 positive Raji cells in a Raji/K-562 mixture. The note with it: 10 μM GCV; gfp transduced cells.

Experimental: The mutation of the MeV H protein comprises the four point mutations Y481A, R533A, S548L and F549S which ablates productive interactions with CD46 and SLAM, respectively. […] Furthermore, transduced cells can be detected by CD34 expression. In parallel, as a control, the same vector particles having packaged the go gene were applied.
For the generation of the vector particles calcium phosphate transfection was performed. 24 h before transfection, 6.5*10^6 HEK-293T cells were seeded into a T75 flask. 1 h before transfection the medium of the cells was exchanged against 7 ml fresh medium (DMEM with 4.5 g/l glucose, 3.7 g/l NaHCO3, 10% FCS, 1% glutamin). […]
The HmutscFvCD20Δ18/FcΔ30 pseudotyped HIV-1 vector particles either with packaged go gene or with packaged cd34tk39 gene were 1:5 diluted in 300 μl medium (RPMI 1640 with 2 g/l NaHCO3, 10% FCS, 1% glutamine) containing a mixture of 2*10^3 CD20+ Raji and 2*10^3 CD20− K-562 cells. […] Afterwards the percentages of CD20/GFP and CD20/CD34 double positive cells, respectively, were measured by FACS (time point 0 h in FIG. 18). […] At different time points the cells were stained with the respective antibodies and the double positive cells were measured by FACS (Dako Galaxy flow cytometry system; s. FIGS. 18A-18B).

`Nc1nc(O)c2ncn(COC(CO)CO)c2n1` [GCV, Gancyclovir]: the “Toxic effect of GCV by its own on the cells (CD20/GFP double positive fraction)” value was “no toxic effect”.

For the origin of these results see US10415057B2, “Pseudotyping of retroviral vectors, methods for production and use thereof for targeted gene transfer and high throughput screening” (BUNDESREPUBLIK DEUTSCHLAND, LETZ[…], priority 2006, dated 2019).
